Each compound was assayed on SK-MEL-28 cells (B-RAF V600E mutated) (assay: Inhibition of the proliferation of cultivated human melanoma cells (SK-MEL-28), AlamarBlue). Conditions: Homo sapiens, SK-MEL-28, 72 h, SK-MEL-28 melanoma cells, 72 h incubation.
Assay type: cell-based
Experimental: Measurement of the Inhibition of the Proliferation of Cultivated Human Melanoma Cells (SK-MEL-28, B-RAF^V600E mutated)
For measuring the proliferation of cultivated human tumour cells, cells of the melanoma cell line SK-MEL-28 [from American Type Culture Collection (ATCC)] are cultivated in MEM medium, supplemented with 10% foetal calf serum, 2% sodium bicarbonate, 1 mM sodium pyruvate, 1% non-essential amino acids (e.g. from Cambrex, # BE13-114E) and 2 mM glutamine. SK-MEL-28 cells are placed in 96-well flat bottomed dishes in a density of 2500 cells per well in supplemented MEM medium (see above) and incubated overnight in an incubator (at 37° C. and 5% CO2). The active substances are added to the cells in different concentrations, so that a concentration range of 50 μM to 3.2 nM is covered. If necessary the initial concentration of 50 μM is changed to 10 μM or 2 μM and further dilution is carried out accordingly (up to 0.6 nM or 0.12 nM). After an incubation period of a further 72 h 20 μL AlamarBlue reagent (Serotec Ltd., # BUF012B) are added to each well and the cells are incubated for a further 3-6 h. The colour change of the AlamarBlue reagent is determined in a fluorescence spectrophotometer (e.g. Gemini, Molecular Devices). EC50 values are calculated using a software program (GraphPadPrizm).

SMILES	EC50 [nM]
CCCS(=O)(=O)Nc1ccc(F)c(Nc2ncnc3cnc(-n4cnc(C)c4)nc23)c1F [Example I-1]	276
CCCS(=O)(=O)Nc1ccc(F)c(Nc2ncnc3cnc(N4CCOCC4)nc23)c1F [Example I-2]	514
CCCS(=O)(=O)Nc1ccc(F)c(Nc2ncnc3cnc(N4CCN(CCOC)CC4)nc23)c1F [Example I-3]	1190
CCCS(=O)(=O)Nc1ccc(F)c(Nc2ncnc3cnc(N4CCN(C)CC4)nc23)c1F [Example I-4]	1480
CCCS(=O)(=O)Nc1ccc(F)c(Nc2ncnc3cnc(NC4CCOC4)nc23)c1F (stereo not drawn) [Example I-5]	668
CCCS(=O)(=O)Nc1ccc(F)c(Nc2ncnc3cnc(N4CCC(F)(F)C4)nc23)c1F [Example I-6]	493
CCCS(=O)(=O)Nc1ccc(F)c(Nc2ncnc3cnc(NC4CC(N5CCN(C)CC5)C4)nc23)c1F (stereo not drawn) [Example I-10]	1270
CCCS(=O)(=O)Nc1ccc(F)c(Nc2ncnc3cnc(N4CCC(CN5CCCC5)CC4)nc23)c1F [Example I-12]	952
CCCS(=O)(=O)Nc1ccc(F)c(Nc2ncnc3cnc(NC4CCN(C)CC4)nc23)c1F [Example I-13]	1480
CCCS(=O)(=O)Nc1ccc(F)c(Nc2ncnc3cnc(N4CCC(CN(CC)CC)CC4)nc23)c1F [Example I-14]	1670
CCCS(=O)(=O)Nc1ccc(F)c(Nc2ncnc3cnc(N4CCN(CCN(C)C)CC4)nc23)c1F [Example I-15]	781
CCCS(=O)(=O)Nc1ccc(F)c(Nc2ncnc3cnc(N[C@H]4CC[C@H](N5CCOCC5)CC4)nc23)c1F [Example I-16]	1030
CCCS(=O)(=O)Nc1ccc(F)c(Nc2ncnc3cnc(N4CCC(C(C)N(C)C)CC4)nc23)c1F (stereo not drawn) [Example I-20]	1590
CCCS(=O)(=O)Nc1ccc(F)c(Nc2ncnc3cnc(N(C)C)nc23)c1F [Example I-23]	1630
CCCS(=O)(=O)Nc1ccc(F)c(Nc2ncnc3cnc(-n4cncn4)nc23)c1F [Example I-24]	1500
CCCS(=O)(=O)Nc1ccc(F)c(Nc2ncnc3cnc(-n4cnc(C)c4C)nc23)c1F [Example I-25]	143
CCCS(=O)(=O)Nc1ccc(F)c(Nc2ncnc3cnc(-n4ccc(C)n4)nc23)c1F [Example I-27]	807
CCCS(=O)(=O)Nc1ccc(F)c(Nc2ncnc3cnc(Nc4ccc(N5CCN(C)CC5)cc4)nc23)c1F [Example I-29]	526
CCCS(=O)(=O)Nc1ccc(F)c(Nc2ncnc3cnc(-n4ccnc4)nc23)c1F [Example I-30]	504
CCCS(=O)(=O)Nc1ccc(F)c(Nc2ncnc3cnc(-n4cccn4)nc23)c1F [Example I-31]	936
CCCS(=O)(=O)Nc1ccc(F)c(Nc2ncnc3cnc(NCCOC)nc23)c1F [Example I-33]	1800

More lines, now with the values ahead:

EC50 [nM]	SMILES
1600	CCCS(=O)(=O)Nc1ccc(F)c(Nc2ncnc3cnc(NC4CCN(CCOC)CC4)nc23)c1F [Example I-17]
1250	CCCS(=O)(=O)Nc1ccc(F)c(Nc2ncnc3cnc(N4CCC(CN(C)C)CC4)nc23)c1F [Example I-19]
1140	CCCS(=O)(=O)Nc1ccc(F)c(Nc2ncnc3cnc(N4CCN(CCN5CCOCC5)CC4)nc23)c1F [Example I-9]
1070	CCCS(=O)(=O)Nc1ccc(F)c(Nc2ncnc3cnc(N4CCN(C5CCN(C)CC5)CC4)nc23)c1F [Example I-11]
919	CCCS(=O)(=O)Nc1ccc(F)c(Nc2ncnc3cnc(N[C@H]4CCOC4)nc23)c1F [Example I-22]
774	CCCS(=O)(=O)Nc1ccc(F)c(Nc2ncnc3cnc(N4C[C@@H](C)O[C@@H](C)C4)nc23)c1F [Example I-18]
440	CCCS(=O)(=O)Nc1ccc(F)c(Nc2ncnc3cnc(N4CCC5(CCN(C)CC5)CC4)nc23)c1F [Example I-21]
424	CCCS(=O)(=O)Nc1ccc(F)c(Nc2ncnc3cnc(Nc4ccncc4)nc23)c1F [Example I-28]
297	CCCS(=O)(=O)Nc1ccc(F)c(Nc2ncnc3cnc(-n4ccnc4C)nc23)c1F [Example I-32]
212	CCCS(=O)(=O)Nc1ccc(F)c(Nc2ncnc3cnc(-n4cc(C)nc4C)nc23)c1F [Example I-26]

Same assay, conditions: SK-MEL-28 melanoma cells, 72 h incubation

EC50 [nM]	SMILES
176	CCCS(=O)(=O)Nc1ccc(F)c(Nc2ncnc3cnc(N4CC[C@H](F)C4)nc23)c1F [Example I-7]
522	CCCS(=O)(=O)Nc1ccc(F)c(Nc2ncnc3cnc(N4CC[C@H](F)C4)nc23)c1F [Example I-8]

From US20130023531A1, “PYRIMIDO[5,4-D]PYRIMIDYLAMINO PHENYL SULFONAMIDES AS SERINE/THREONINE KINASE INHIBITORS” (BOEHRINGER INGELHEIM INTERNATIONAL GMBH, priority 2011, published 2013)
